Measurements published in patent publication US8232298B2, “Inhibitors of the interaction between MDM2 and P53” (Janssen Pharmaceutica N.V., priority 2006, dated 2012).
Where two headings read alike, the source gives them in different places.

Tests used:
p53 in A2780 cells = test: p53 ELISA: capacity to preserve p53 in A2780 cells; type: cell-based; conditions: treated with compound for 16 hours, in M
Description: The capacity of the compounds to preserve p53 in A2780 cells was measured with the p53 enzyme linked immunosorbent assay. The p53 assay is a “sandwich” enzyme immunoassay employing two polyclonal antibodies. A polyclonal antibody, specific for the p53 protein, has been immobilized onto the surface of the plastic wells. Any p53 present in the sample to be assayed will bind to the capture antibody. The biotinylated detector polyclonal antibody also recognizes p53 protein, and will bind to any p53, which has been retained by the capture antibody. The detector antibody, in turn, is bond by horseradish peroxidase-conjugated streptavidin. The horseradish peroxidase catalyses the conversion of the chromogenic substrate o-phenylene diamine, the intensity of which is proportional to the amount of p53 protein bond to the plate. The colored reaction product is quantified using a spectrophotometer. Quantitation is achieved by the construction of a standard curve using known concentrations of purified recombinant HIS tagged p53 protein (see example C.1.).
A2780 cells (ATCC) were cultivated in RPMI 1640 supplemented with 10% fetal calf serum (FCS), 2 mM L-glutamine and gentamycin at 37° C. in a humidified incubator with 5% CO2.
A2780 cells were seeded at 20.000 cells per well in a 96 well plate, cultured for 24 hours and treated with compound for 16 hours at 37° C. in a humidified incubator. After incubation, the cells were washed once with phosphate-buffered saline and 30 μl, per well, low salt RIPA buffer (20 mM tris, pH7.0, 0.5 mM EDTA, 1% Nonidet P40, 0.5% DOC, 0.05% SDS, 1 mM PMSF, 1 μg/ml aprotinin and 0.5 μ/ml leupeptin) was added. Plates were placed on ice for 30 minutes to complete the lysis. p53 protein was detected in de lysates by using the sandwich ELISA, described below.
High binding polystyrene EIA/RIA 96 well plates (Costar 9018) were coated with the capture antibody pAb1801 (Abeam ab28-100) at a concentration of 1 μg/ml in coating buffer (0.1 M NaHCO3 pH8.2), 50 μl per well. The antibody was allowed to adhere overnight at 4° C. Coated plates were washed once with phosphate-buffered saline (PBS)/0.05% Tween 20 and 300 μl of blocking buffer (PBS, 1% bovine serum albumins (BSA)) was added, for an incubation period of 2 hours at room temperature. Dilutions of purified recombinant HIS tagged p53 protein, ranging from 3-200 ng/ml, were made in blocking buffer and used as standards.
Plates were washed twice with PBS/0.05% Tween 20 and blocking buffer or standards were added at 80 μl/well. To the standards, 20 μl of lysis buffer was added. The samples were added to the other wells at 20 μl lysate/well. After an overnight incubation at 4° C., plates were washed twice with PBS/0.05% Tween 20. Aliquots of 100 μl secondary polyclonal antibody p53(FL-393) (Tebubio, sc-6243) at a concentration of 1 μg/ml in blocking buffer were added to each well and allowed to adhere for 2 hours at room temperature. Plates were washed three times with PBS /0.05% Tween 20. Detection antibody anti-rabbit HRP (sc-2004, Tebubio) at 0.04 μg/ml in PBS/1% BSA was added and incubated for 1 hour at room temperature. Plates were washed three times with PBS/0.05% Tween 20 and 100 μl of substrate buffer was added (substrate buffer was prepared shortly before use by adding 1 tablet of 10 mg o-phenylene diamine (OPD) from Sigma and 125 μl 3% H2O2 to 25 ml OPD buffer: 35 mM citric acid, 66 mM Na2HPO4, pH5.6). After 5 to 10 minutes, colour reaction was stopped by adding 50 μl stop buffer (1 M H2SO4) per well. The absorbance at dual wavelengths of 490/655 nm was measured using a Biorad micro plate reader and the results were then analyzed.
For each experiment, controls (containing no drug) and a blank incubation (containing no cells or drugs) were run in parallel. The blank value was subtracted from all control and sample values. For each sample, the value of p53 (in absorbance units) was expressed as the percentage of the value for p53 present in the control. […]

U87MG cells = test: Proliferation assay (MTT) on U87MG tumour cells; type: cell-based; conditions: Homo sapiens, U-87 MG
Description: Cellular activity of the compounds of formula (I) was determined on U87MG tumour cells using a colorimetric assay for cell toxicity or survival (see example C.2).
U87MG cells are human glioblastoma cells with wild type p53. In this cell line MDM2 tightly controls p53 expression.
All compounds tested were dissolved in DMSO and further dilutions were made in culture medium. Final DMSO concentrations never exceeded 0.1% (v/v) in cell proliferation assays. Controls contained U87MG cells and DMSO without compound and blanks contained DMSO but no cells.
U87MG cells were seeded in 96-well cell culture plates at 3000 cells/well/100 μl. 24 hours later, medium was changed and compound and/or solvent were added to a final volume of 200 μl. Following 4 days of incubation, medium was replaced by 200 μl fresh medium and cell growth was assessed using a MTT-based assay. Therefore, 25 μl of the MTT solution (0.5% MTT research grade from Serva in phosphate-buffered saline ) was added to each well and the cells were further incubated for 2 hours at 37° C. The medium was then carefully aspirated and the blue MTT-formazan product was dissolved by adding to each well 25 μl 0.1M glycin and 100 μl DMSO. The plates were shaken for another 10 min on a micro plate shaker before reading absorbance at 540 nm by a Biorad micro plate reader.
Within an experiment, the results for each experimental condition are the mean of 3 replicate wells. For initial screening purposes, compounds were tested at a single fixed concentration of 10^−5 M. For active compounds, the experiments were repeated to establish full concentration-response curves. For each experiment, controls (containing no drug) and a blank incubation (containing no cells or drugs) were run in parallel. The blank value was subtracted from all control and sample values. For each sample, the mean value for cell growth (in absorbance units) was expressed as a percentage of the mean value for cell growth of the control. When appropriate, IC50-values (concentration of the drug, needed to reduce cell growth to 50% of the control) were computed using probit analysis for graded data (Finney, D. J., Probit Analyses, 2nd Ed. Chapter 10, Graded Responses, Cambridge University Press, Cambridge 1962). Herein the effects of test compounds are expressed as pIC50 (the negative log value of the IC50-value) (see table F-2).
In some of the experiments the proliferation assay was adapted for and used in 384-well culture plates (see table F-2).

[1] = 96 h, 96-well plates, 4 days of incubation, read-out: cell proliferation pIC50 96 well (converted)
[2] = 384-well culture plates, read-out: cell proliferation pIC50 384 well (converted)

Row | Compound | IC50 (U87MG cells; [1]) [µM] | melting point [°C] | IC50 (U87MG cells; [2]) [µM] | A2780 p53-elisa LAD (lowest dose giving at least 140% of the value for p53 present in the control) (p53 in A2780 cells)
1 | c1ccc2c(CCNc3ccc(Nc4ccncc4)cc3)coc2c1 [Compound 1] | 3.24 | 152 to 154 |  | 1.0E−05
2 | COc1ccc2c(CCNc3ccc(Nc4ccncc4)cc3)coc2c1 [Compound 5] | 4.47 | 184 to 186 |  | 1.0E−05
3 | c1cc(Nc2ccc(NCCc3cnc4n3CCCC4)cc2)ccn1 [Compound 3] | 7.08 | 256 |  | 3.0E−06

Further lines, with some results ahead:

Row | IC50 (U87MG cells; [1]) [µM] | melting point [°C] | IC50 (U87MG cells; [2]) [µM] | Compound | A2780 p53-elisa LAD (lowest dose giving at least 140% of the value for p53 present in the control) (p53 in A2780 cells)
4 |  |  | > 10 | c1cc(Nc2ccc(NCCc3c[nH]c4sccc34)cc2)ccn1 [Compound 6] | 1.0E−05
5 | 4.37 | 182 |  | c1cnc2[nH]cc(CCNc3ccc(Nc4ccncc4)cc3)c2c1 [Compound 2] | 3.0E−06
6 |  |  | 1.41 | c1cc(Nc2ccc(Nc3ccc4[nH]ccc4c3)cc2)ccn1 [Compound 4] | 1.0E−06
